Source: PubChem BioAssay AID686930 (Broad Institute, 2013)
Where “and” joins values, the source holds several entries; their conditions need not be identical. Equal values may be shown once. Calls of active or inactive are those of the source. No rule for the calls is given here.

Test system: not listed separately
Assay: Confirmatory dose response, V. cholerae WN1103 δluxq inducers of light production, absence of autoinducers (AID 686930)
Conditions: V. cholerae WN1103 ΔluxQ, lux luminescence, 6 h; at 35 µM (top of the series)
With `O=C(CC1CCCCC1)Nc1nnc(-c2ccc3c(c2)CCCC3)o1` the light induction (activation) was 0.068% (inactive).

Same assay, conditions: V. cholerae WN1103 ΔluxQ, lux luminescence, 6 h; at 80 µM (top of the series)
With `O=C(CSc1nc2ccccc2c(=O)[nH]1)NC1CCCCC1` the light induction (activation) was 0.011% (inactive). For `CCc1nc(=O)c2ccccc2n1-c1cccc(Cl)c1`, the light induction (activation) was 0.68% (inactive). In the case of `O=C(Nc1nnc(-c2ccc3c(c2)OCCO3)o1)C1CCCC1`, the light induction (activation) is reported as 0.121% (inactive). With `Cc1ccc2c(=O)ncn(-c3cccc(Cl)c3)c2c1` the light induction (activation) was 0.092% (inactive). For `O=c1[nH]cnc2ccccc12`, the light induction (activation) was 0.044% (inactive). For `O=C(Nc1nnc(-c2ccc(Cl)cc2)o1)C1CCCCC1`, the light induction (activation) was 0.835% (inactive). With `O=c1ncn(-c2cccc(Cl)c2)c2cc(Cl)ccc12` the light induction (activation) was 0.848% (inactive). In the case of `O=c1ncn(Cc2ccc(Cl)cc2)c2ccccc12`, the light induction (activation) is reported as 3.21% (inactive). For `O=C(CC1CCCCC1)Nc1nnc(-c2cccnc2)o1`, the light induction (activation) was -0.002% (inactive). With `O=C(Nc1nnc(-c2cccc(Cl)c2)o1)C1CCCCC1` the light induction (activation) was 0.053% (inactive). With `O=c1ncn(-c2cccc(Cl)c2)c2cccc(Cl)c12` the light induction (activation) was 0.081% (inactive). With `Cc1ccc(-n2cnc(=O)c3ccccc32)cc1Cl` the light induction (activation) was 0.708% (inactive). For `O=C1C(=O)N(Cc2ccccc2Cl)c2ccccc21`, the light induction (activation) was 0.599% (inactive). With `Cc1ccc2cc3c(NC(=O)c4ccoc4)nn(C)c3nc2c1` the light induction (activation) was 6.06% (inactive). With `O=C1C(=O)N(Cc2cccc(Cl)c2)c2ccccc21` the light induction (activation) was 0.237% (inactive). With `COC(=O)c1ccccc1Nc1cccc(Cl)c1` the light induction (activation) was 0.819% (inactive). For `O=C(O)c1ccccc1Nc1cccc(Cl)c1`, the light induction (activation) was 0.041% (inactive). For `CCC(C)(C)C(=O)Nc1nnc(-c2ccc3c(c2)OCCO3)o1`, the light induction (activation) was -0.001% (inactive). With `NC(=O)c1ccccc1Nc1ccccc1` the light induction (activation) was 1.21% (inactive). In the case of `O=c1ncn(-c2ccc(Cl)cc2)c2ccccc12`, the light induction (activation) is reported as 0.086% (inactive). For `COc1cccc(-n2cnc(=O)c3ccccc32)c1`, the light induction (activation) was 12% (inactive). In the case of `COc1ccc2c(=O)ncn(-c3cccc(Cl)c3)c2c1`, the light induction (activation) is reported as 0.054% (inactive). With `O=C(CSc1nc2c(c(=O)[nH]1)CCCC2)NC1CCCCC1` the light induction (activation) was 1.52% (inactive). For `CCOC(=O)c1ccccc1Nc1cccc(Cl)c1`, the light induction (activation) was 0.033% (inactive). In the case of `COc1ccc(-n2cnc(=O)c3ccccc32)cc1Cl`, the light induction (activation) is reported as 1.24% (inactive). For `O=c1nc(Cc2ccccc2)n(-c2cccc(Cl)c2)c2ccccc12`, the light induction (activation) was 17.7% (inactive). In the case of `O=C(Nc1nnc(-c2ccc3c(c2)CCCC3)o1)C1CCC1`, the light induction (activation) is reported as 0.009% (inactive). In the case of `O=c1ncn(-c2ccc(Cl)c(Cl)c2)c2ccccc12`, the light induction (activation) is reported as 0.121% (inactive). For `O=c1nc(-c2ccccc2)n(-c2cccc(Cl)c2)c2ccccc12`, the light induction (activation) was -0.003% (inactive). With `Cn1cnc(=O)c2ccccc21` the light induction (activation) was 0.063% (inactive). In the case of `NC(=O)c1ccccc1Nc1cccc(Cl)c1`, the light induction (activation) is reported as 0.32% (inactive). For `O=c1ncn(-c2ccccc2Cl)c2ccccc12`, the light induction (activation) was 5% (inactive).

Same assay, conditions: V. cholerae WN1103 ΔluxQ, lux luminescence, 6 h; at 100 µM (top of the series)
In the case of `CCn1nnnc1N`, the light induction (activation) is reported as 0.029% (inactive). With `Cn1nc(NC(=O)c2ccco2)c2cc3ccc(C(C)(C)C)cc3nc21` the light induction (activation) was -0.007% (inactive). For `CN(C)/C=N/c1nnc(-c2ccc3c(c2)OCCO3)o1`, the light induction (activation) was 0.028% (inactive). For `O=C(Nc1nnc(-c2ccc3c(c2)OCCO3)o1)C1CCC1`, the light induction (activation) was 0.014% (inactive). For `O=C(Nc1nnc(-c2ccc3c(c2)OCCO3)o1)C1CC1`, the light induction (activation) was 0.003% (inactive). In the case of `Cn1nc(NC(=O)c2ccco2)c2ccccc21`, the light induction (activation) is reported as 3.2% (inactive). With `O=C(Nc1nnc(-c2ccncc2)o1)C1CCC1` the light induction (activation) was 0.061% (inactive). For `O=S(=O)(Nc1nnc(-c2ccc3c(c2)OCCO3)o1)c1ccc(Cl)cc1`, the light induction (activation) was -0.019% (inactive). For `Cc1ccc2cc3c(NC(=O)Cc4ccco4)nn(C)c3nc2c1`, the light induction (activation) was 0.668% (inactive). With `COc1cccc(-c2nnc(NC(=O)C3CCCCC3)o2)c1` the light induction (activation) was 0.041% (inactive). In the case of `CC(C)c1ccc2cc3c(NC(=O)c4ccco4)nn(C)c3nc2c1`, the light induction (activation) is reported as 0.362% (inactive). In the case of `COc1ccc(-c2nnc(NC(C)=O)o2)cc1`, the light induction (activation) is reported as 0.052% (inactive). With `Cc1ccc2cc3c(NC(=O)c4cc5ccccc5o4)nn(C)c3nc2c1` the light induction (activation) was -0.001% (inactive). With `C(=N\c1nnc(-c2ccc3c(c2)OCCO3)o1)/c1ccccc1` the light induction (activation) was 0.005% (inactive). For `O=C(Nc1nnc(-c2cccnc2)o1)C1CCC1`, the light induction (activation) was -0.007% (inactive). In the case of `O=C(Cc1ccc(-c2ccccc2)cc1)NC1CNC1`, the light induction (activation) is reported as 0.006% (inactive). For `Cn1ccc(NC(=O)c2ccco2)n1`, the light induction (activation) was 0.057% (inactive). For `O=C(Nc1nnc(-c2ccc3c(c2)OCCO3)o1)C(F)(F)c1ccccc1`, the light induction (activation) was -0.027% (inactive). In the case of `O=C(Nc1nnc(-c2cccnc2)o1)C1CCCCC1`, the light induction (activation) is reported as 7.84% (inactive). With `CC(C)(C)OC(=O)N1CCC(C(=O)Nc2nnc(-c3ccc4c(c3)OCCO4)o2)CC1` the light induction (activation) was 0.028% (inactive). For `O=C(Cc1ccc(-c2ccccc2)cc1)NC1COC1`, the light induction (activation) was 32.6% (inactive). For `CN1CCC(C(=O)Nc2nnc(-c3ccc4c(c3)OCCO4)o2)CC1`, the light induction (activation) was 0.046% (inactive). In the case of `Cc1ccc2cc3c(NC(=O)c4ccccn4)nn(C)c3nc2c1`, the light induction (activation) is reported as -0.007% (inactive). With `O=C(Nc1nnc(-c2ccccc2Cl)o1)C1CCCCC1` the light induction (activation) was 0.001% (inactive). In the case of `COc1ccc(S(=O)(=O)Nc2nnc(-c3ccc4c(c3)OCCO4)o2)cc1`, the light induction (activation) is reported as -0.015% (inactive). In the case of `CCn1nnnc1/N=C/c1ccc(N2CCCCC2)cc1`, the light induction (activation) is reported as 1.21% (inactive). In the case of `c1ccc(CNc2nnc(-c3ccc4c(c3)OCCO4)o2)cc1`, the light induction (activation) is reported as 0.006% (inactive). For `Cc1ccc2cc3c(NC(=O)c4ccc(C)o4)nn(C)c3nc2c1`, the light induction (activation) was 8.61% (inactive). With `O=C(Nc1nnc(C2CCCC2)o1)C1CCCCC1` the light induction (activation) was 0.003% (inactive).

Test system: V. cholerae WN1103 ΔluxQ, lux luminescence, 6 h
Assay: as above
Conditions: not given
With `Cn1nc(NC(=O)c2ccco2)c2cc3ccccc3nc21` the AC40 was 4.12 µM. In the case of `O=c1ncn(-c2cccc(Cl)c2)c2ccccc12`, the AC40 is reported as 0.0667 µM and 0.362 µM. In the case of `COc1ccc(-c2nnc(NC(=O)C3CCCCC3)o2)cc1`, the AC40 is reported as > 100 µM (inactive). `COc1ccc2cc3c(NC(=O)c4ccco4)nn(C)c3nc2c1` showed an AC40 of 0.901 µM. Work on `CCn1nnnc1NC(C)c1ccc(N2CCCC2)cc1` (configuration not stated) yielded an AC40 of 34.7 µM. In the case of `Cc1cc(F)c2cc3c(NC(=O)c4ccco4)nn(C)c3nc2c1`, the AC40 is reported as 47 µM. Compound `Cc1cc2cc3c(NC(=O)c4ccco4)nn(C)c3nc2cc1C` has an AC40 of 71.7 µM. Work on `O=C(Cc1ccc(-c2ccccc2)cc1)N[C@@H]1CCOC1` (racemic) yielded an AC40 of 31.2 µM. For `Cc1ccc2c(c1)c(=O)ncn2-c1cccc(Cl)c1`, the AC40 was 1.45 µM. `Cn1nc(NC(=O)c2ccco2)c2cccnc21` showed an AC40 of 44.1 µM. Compound `Cc1ccc2cc3c(NC(=O)C4CCCC4)nn(C)c3nc2c1` has an AC40 of 59.3 µM. `CC(C)(C)COC(=O)CSc1n[nH]c(=O)[nH]c1=O` showed an AC40 of 18.9 µM. In the case of `Cc1ccc2cc3c(NC(=O)c4cccs4)nn(C)c3nc2c1`, the AC40 is reported as > 80 µM (inactive). With `O=C(Nc1nnc(-c2ccc3c(c2)OCCO3)o1)C1CCCCC1` the AC40 was 5.8 µM and 1.96 µM. In the case of `O=C(Nc1nnc(-c2ccc3c(c2)OCCO3)o1)C1CCCCCC1`, the AC40 is reported as 9.05 µM. In the case of `CCc1ccc2cc3c(NC(=O)c4ccco4)nn(C)c3nc2c1`, the AC40 is reported as 42.1 µM. In the case of `O=c1ncn(-c2cccc(F)c2)c2ccccc12`, the AC40 is reported as 0.302 µM. In the case of `CCn1nnnc1NCc1ccc(C(C)C)cc1`, the AC40 is reported as 0.255 µM. `Cc1cc2nc3c(cc2cc1F)c(NC(=O)c1ccco1)nn3C` showed an AC40 of 57.3 µM. With `O=c1ncn(-c2ccccc2)c2ccccc12` the AC40 was 0.361 µM. In the case of `COc1ccccc1-c1nnc(NC(=O)C2CCCCC2)o1`, the AC40 is reported as > 100 µM (inactive). `Cc1cc(F)cc2nc3c(cc12)c(NC(=O)c1ccco1)nn3C` showed an AC40 of 27.1 µM. `Cc1cccc(-n2cnc(=O)c3ccccc32)c1` gave an AC40 of 0.199 µM. Work on `O=c1ncn(-c2cc(Cl)cc(Cl)c2)c2ccccc12` yielded an AC40 of 1.09 µM. Compound `CCCCCCCCCC(=O)[C@H](O)CC` (racemic) has an AC40 of 1.92 µM. With `Cc1nc(=O)c2ccccc2n1-c1cccc(Cl)c1` the AC40 was 18.1 µM. With `CCCCCCCCCC(=O)C(O)CC` (configuration not stated) the AC40 was 0.848 µM. `O=c1ncn(-c2ccc(F)c(Cl)c2)c2ccccc12` gave an AC40 of 5.38 µM. For `O=c1ncn(-c2cccc(Cl)c2)c2ccc(Cl)cc12`, the AC40 was 1.33 µM. Compound `O=C(Cc1ccc(-c2ccccc2)cc1)NC1CCC1` has an AC40 of 5.06 µM.
